These results are taken from patent publication US4482707A, “Aminoglycoside antibiotic saccharocins” (Toyo Jozo Kabushiki Kaisha, priority 1981, dated 1984).

One data set can be described thus: Solubility. The data set is classed as physicochemical.
For data set [1], the system named is Pseudomonas aeruginosa ML4561 Rm3164-1. The data set can be described thus: MIC by the agar dilution method. The settings on record: ML4561RM31641. Format: cell-based. The text has this:
(§1) The minimum inhibitory concentration (MIC) of saccharocin and 3'-oxysaccharocin by the agar dilution method are shown in Table 1.
In general terms: In agar dilution the substance is mixed into plates at graded concentrations.

Data set [2] concerns Escherichia coli NIHJ-JC2. As to the kind of experiment: MIC by the agar dilution method. Format: cell-based. The following applies: NIHJJC2.
From the text: as §1

Data set [3] deals with Bacillus subtilis ATCC6633. As to the kind of experiment: MIC by the agar dilution method. Format: cell-based.
From the text: as §1

Data set [4] has as its system Enterobacter cloacae GN336. The data set can be described thus: MIC by the agar dilution method. Format: cell-based.
From the text: as §1

A further data set concerns Proteus morganii 0239. As to the kind of experiment: MIC by the agar dilution method. The data set is classed as cell-based. The settings on record: Morganella morganii.
From the text: as §1

The test system of the next data set is Pseudomonas putida 1842. The data set can be described thus: MIC by the agar dilution method. Format: cell-based.
From the text: as §1

Data set [5] deals with Klebsiella pneumoniae ATCC 10031. As to the kind of experiment: MIC by the agar dilution method. The data set is classed as cell-based. The following applies: ATCC10031.
From the text: as §1

Data set [6] concerns Staphylococcus epidermidis ap-al-1. The data set can be described thus: MIC by the agar dilution method. The data set is classed as cell-based. The following applies: APAL1.
From the text: as §1

For the next data set, the system named is Shigella sonnei E33. The data set can be described thus: MIC by the agar dilution method. The data set is classed as cell-based.
From the text: as §1

The next data set concerns Serratia marcescens. As to the kind of experiment: MIC by the agar dilution method. The data set is classed as cell-based.
From the text: as §1

In data set [7] the test system is Escherichia coli W3630RGN14. The data set can be described thus: MIC by the agar dilution method. Format: cell-based.
From the text: as §1

Another data set relates to Escherichia coli W3630. The data set can be described thus: MIC by the agar dilution method. Format: cell-based.
From the text: as §1

Data set [8] has as its system Staphylococcus aureus MS27. As to the kind of experiment: MIC by the agar dilution method. Format: cell-based.
From the text: as §1

For data set [9], the system named is Pseudomonas aeruginosa 1946. As to the kind of experiment: MIC by the agar dilution method. The data set is classed as cell-based.
From the text: as §1

The subject of data set [10] is Salmonella enteritidis gaertner. As to the kind of experiment: MIC by the agar dilution method. The data set is classed as cell-based. The following applies: Salmonella enterica.
From the text: as §1

In another data set the test system is Pseudomonas aeruginosa. The data set can be described thus: MIC by the agar dilution method. Format: cell-based. The settings on record: Pseudomonas aeruginosa (no strain code).
From the text: as §1

Data set [11] deals with Pseudomonas martfiriae 1850. The data set can be described thus: MIC by the agar dilution method. The data set is classed as cell-based.
From the text: as §1

Data set [12] relates to Pseudomonas aeruginosa ML4561. As to the kind of experiment: MIC by the agar dilution method. Format: cell-based.
From the text: as §1

Data set [13] deals with Pseudomonas aeruginosa 2512. The data set can be described thus: MIC by the agar dilution method. Format: cell-based.
From the text: as §1

The test system of the next data set is Proteus rettgeri ACR. The data set can be described thus: MIC by the agar dilution method. Format: cell-based. The following applies: Providencia rettgeri.
From the text: as §1

The subject of data set [14] is Streptococcus pyogenes N.Y.5. The data set can be described thus: MIC by the agar dilution method. Format: cell-based.
From the text: as §1

Data set [15] relates to Enterobacter aerogenes 055. As to the kind of experiment: MIC by the agar dilution method. Format: cell-based. The following applies: Klebsiella aerogenes.
From the text: as §1

Data set [16] relates to Staphylococcus aureus ATCC 6538P. As to the kind of experiment: MIC by the agar dilution method. Format: cell-based. The following applies: ATCC6538P.
From the text: as §1

In data set [17] the test system is Pseudomonas aeruginosa ML4561 RP4. As to the kind of experiment: MIC by the agar dilution method. The following applies: ML4561RP4. Format: cell-based.
From the text: as §1

Data set [18] relates to Staphylococcus aureus 0119. The data set can be described thus: MIC by the agar dilution method. Format: cell-based.
From the text: as §1

Data set [19] deals with Citrobacter freundie GN346. The data set can be described thus: MIC by the agar dilution method. Format: cell-based.
From the text: as §1

Data set [20] relates to Pseudomonas aeruginosa ML4561 Rm3166. As to the kind of experiment: MIC by the agar dilution method. The data set is classed as cell-based. The settings on record: ML4561RM3166.
From the text: as §1

Data set [21] deals with Saccharopolyspora sp. AC 3440. As to the kind of experiment: Resistance on antibiotics of the producing strain. Format: cell-based.
Where [22] appears, read: acetone, benzene, ethyl acetate.
The mark [23] stands for this setting: 336 h, resistance of producing strain AC 3440, 37° C., 14 days, read-out: MIC.
[24] abbreviates: resistance of producing strain AC 3440, 37° C., 14 days.

Values after ≈ are worked out from the molar mass of the structure shown. Like-named read-outs stand apart in the source and are kept apart here. Where only a bound is given, the exact number is not on record here.

What is called MIC is the lowest concentration found to suppress growth. For `CNC1C(OC2OC(CO)C(O)C(O)C2O)OC2C(O)C(N)C(OC3C(N)CC(N)C(O)C3O)OC2C1O` (stereo not drawn) [3'-oxysaccharocin], the results for the Solubility result in the data set “Solubility” (setting [22]) and in “Solubility” (water) were “insoluble” and “soluble”, respectively. Moreover, the MIC is 50 µg/mL (≈ 89.8 µM) in [1]; 12.5 µg/mL (≈ 22.5 µM) in data set [2]; 3.1 µg/mL (≈ 5.57 µM) in data set [3]; 12.6 µg/mL (≈ 22.6 µM) in [4]; 12.5 µg/mL (≈ 22.5 µM) in the data set with Proteus morganii 0239; 50 µg/mL (≈ 89.8 µM) in the data set on Pseudomonas putida 1842. The MIC in [5] was 12.5 µg/mL (≈ 22.5 µM); in data set [6], 12.5 µg/mL (≈ 22.5 µM); in the data set on Shigella sonnei E33, 25 µg/mL (≈ 44.9 µM); against Serratia marcescens it was 12.5 µg/mL (≈ 22.5 µM); in data set [7], 12.5 µg/mL (≈ 22.5 µM); against Escherichia coli W3630 it was 3.1 µg/mL (≈ 5.57 µM). In addition, the MIC in [8] was 25 µg/mL (≈ 44.9 µM); in data set [9], above 50 µg/mL; in data set [10], 12.5 µg/mL (≈ 22.5 µM); against Pseudomonas aeruginosa, 50 µg/mL (≈ 89.8 µM); in [11], above 50 µg/mL; in data set [12] it was 50 µg/mL (≈ 89.8 µM). The MIC was 50 µg/mL (≈ 89.8 µM) in data set [13]; 12.5 µg/mL (≈ 22.5 µM) against Proteus rettgeri ACR; 50 µg/mL (≈ 89.8 µM) in data set [14]; 12.5 µg/mL (≈ 22.5 µM) in data set [15]; 25 µg/mL (≈ 44.9 µM) in data set [16]; 50 µg/mL (≈ 89.8 µM) in [17]. Moreover, the MIC is 12.5 µg/mL (≈ 22.5 µM) in data set [18], 12.5 µg/mL (≈ 22.5 µM) in [19] and 25 µg/mL (≈ 44.9 µM) in [20].
As for `NC[C@H]1O[C@H](O[C@H]2[C@H](O)[C@@H](O[C@H]3O[C@H](CO)[C@@H](O)[C@H](N)[C@H]3O)[C@H](N)C[C@@H]2N)[C@H](O)[C@@H](O)[C@@H]1O` [Kanamycin], in data set [21] (336 h), the MIC is above 100 µg/mL.
Regarding `CCCC(=O)OC1C(C)OC(OC2C(C)OC(OC3C(CC=O)CC(C)C(O)C=CC=CCC(C)OC(=O)CC(O)C3OC)C(O)C2N(C)C)CC1(C)O` (stereo not drawn) [Leucomycin A5], the MIC in data set [21] (setting [23]) is above 100 µg/mL.
On to `NC[C@@H]1O[C@H](O[C@H]2[C@@H](O)[C@H](O[C@@H]3[C@@H](O)[C@H](N)C[C@H](N)[C@H]3O[C@H]3O[C@H](CO)[C@@H](O)[C@H](O)[C@H]3N)O[C@@H]2CO)[C@H](N)[C@@H](O)[C@@H]1O` [Paromomycin], for which, in [21] (setting [23]), the MIC was 50 µg/mL (≈ 81.2 µM).
`CO[C@H]1/C=C/O[C@@]2(C)Oc3c(C)c(O)c4c(O)c(c(/C=N/N5CCN(C)CC5)c(O)c4c3C2=O)NC(=O)/C(C)=C\C=C\[C@H](C)[C@H](O)[C@@H](C)[C@@H](O)[C@@H](C)[C@H](OC(C)=O)[C@@H]1C` [Rifampicin] came in with an MIC in data set [21] (336 h) below 12.5 µg/mL.
As for `CNC1C(OC2OC(CO)C(O)C(O)C2O)OC2CC(N)C(OC3C(N)CC(N)C(O)C3O)OC2C1O` (stereo not drawn) [Saccharocin], the Solubility entry in the data set “Solubility” (setting [22]) is “insoluble”; in the data set “Solubility” (water), “soluble”. Also, the MIC in data set [1] came out at 25 µg/mL (≈ 46.2 µM); in [2] it was 6.3 µg/mL (≈ 11.7 µM); in data set [3], 0.8 µg/mL (≈ 1.48 µM); in data set [4], 6.3 µg/mL (≈ 11.7 µM); against Proteus morganii 0239, 6.3 µg/mL (≈ 11.7 µM); against Pseudomonas putida 1842, 25 µg/mL (≈ 46.2 µM). Besides, the MIC in data set [5] came to 3.1 µg/mL (≈ 5.73 µM); in data set [6], 6.3 µg/mL (≈ 11.7 µM); in the data set with Shigella sonnei E33, 6.3 µg/mL (≈ 11.7 µM); in the data set with Serratia marcescens, 6.3 µg/mL (≈ 11.7 µM); in [7], 3.1 µg/mL (≈ 5.73 µM); against Escherichia coli W3630, 1.6 µg/mL (≈ 2.96 µM). Moreover, the MIC was 12.5 µg/mL (≈ 23.1 µM) in data set [8]; above 100 µg/mL in data set [9]; 6.3 µg/mL (≈ 11.7 µM) in data set [10]; 25 µg/mL (≈ 46.2 µM) in the data set with Pseudomonas aeruginosa; above 100 µg/mL in data set [11]; 25 µg/mL (≈ 46.2 µM) in [12]. For the same molecule, the MIC worked out at 50 µg/mL (≈ 92.5 µM) in data set [13]; 3.1 µg/mL (≈ 5.73 µM) against Proteus rettgeri ACR; 25 µg/mL (≈ 46.2 µM) in data set [14]; 6.3 µg/mL (≈ 11.7 µM) in [15]; 12.5 µg/mL (≈ 23.1 µM) in [16]; 12.5 µg/mL (≈ 23.1 µM) in [17]. Moreover, the results for the MIC in [18], in data set [19] and in data set [20] were 6.3 µg/mL (≈ 11.7 µM), 6.3 µg/mL (≈ 11.7 µM) and 12.5 µg/mL (≈ 23.1 µM), respectively.
For the molecule `[H]/N=C(/N)N[C@H]1[C@H](O)[C@@H](O)[C@H](O[C@@H]2O[C@@H](C)[C@](O)(C=O)[C@H]2O[C@@H]2O[C@@H](CO)[C@H](O)[C@@H](O)[C@@H]2NC)[C@@H](N/C(N)=N\[H])[C@@H]1O` [Streptomycin], the MIC in data set [21] (setting [23]) amounted to 25 µg/mL (≈ 43 µM).
`NC[C@H]1O[C@H](O[C@H]2[C@H](O)[C@@H](O[C@H]3O[C@H](CO)[C@@H](O)[C@H](N)[C@H]3O)[C@H](N)C[C@@H]2N)[C@H](N)C[C@@H]1O` [Tobramycin]: in data set [21] (setting [23]), the MIC was above 100 µg/mL.
In data set [21] (setting [24]), Gentamicin registered an MIC above 100 µg/mL.
In [21] (setting [24]), Neomycin returned an MIC of 100 µg/mL.
